# In US12052991B2, “Substituted pyridinyloxybenzenes and salts thereof and use thereof as herbicidal agents” (Bayer Aktiengesellschaft, priority 2018, dated 2024):
# Columns and labels:
# Assay type in all cases: in vivo
# [1] = test system: Matricaria inodora (MATIN); assay: Herbicidal post-emergence action (Table B7); conditions: 1280 g/ha; rated visually after about 3 weeks; 100% = plants have died, 0% = like control plants
# Experimental: (§1) Seeds of mono- and dicotyledonous weed plants were placed in plastic pots in sandy loam soil (doubly sown with in each case one species of mono- or dicotyledonous weed plants per pot), covered with soil and cultivated in a greenhouse under controlled growth conditions. 2 to 3 weeks after sowing, the test plants were treated at the one-leaf stage. The compounds of the invention, formulated in the form of wettable powders (WP) or as emulsion concentrates (EC), were applied onto the green parts of the plants as aqueous suspension or emulsion with addition of 0.5% additive at a water application rate of 600 liters per hectare (converted). After the test plants had been kept in the greenhouse under optimum growth conditions for about 3 weeks, the activity of the preparations was rated visually in comparison to untreated controls. For example, 100% activity=the plants have died, 0% activity=like control plants. Tables B1 to B12 below show the effects of selected compounds of the general formula (I) according to Table 1 on various harmful plants and an application rate corresponding to 1280 or 320 g/ha, which were obtained by the experimental procedure mentioned above.
# [2] = test system: Echinochloa crus-galli (ECHCG); assay: Herbicidal post-emergence action (Table B1); conditions: rated visually after about 3 weeks, 100% = plants have died, 0% = like control plants
# Summary of the method: (§2)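 Activity was scored visually against untreated plants roughly 3 weeks after treatment, 0% meaning like control and 100% plant death. Application was post-emergence onto green parts at the one-leaf stage, as aqueous suspension/emulsion with 0.5% additive, 600 l/ha, delivering 1280 or 320 g/ha to greenhouse plants in sandy loam.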
# [3] = test system: harmful plants ABUTH, AMARE, ECHCG, LOLRI, MATIN, POAAN, SETVI, STEME, ALOMY, DIGSA, KCHSC and VERPE; assay: Herbicidal post-emergence action, summary of Tables B1-B12; conditions: application rate of 1280 or 320 g of active ingredient per hectare; summary in words
# Summary of the method: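 Activity scored by eye roughly 3 weeks post-treatment against untreated plants, from 0% (no effect) to 100% (plants dead). Application rates were 1280 or 320 g/ha, as aqueous WP/EC spray plus 0.5% additive at 600 L/ha, onto one-leaf-stage weeds grown 2–3 weeks in sandy loam.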
# [4] = test system: Veronica persica (VERPE); assay: Herbicidal post-emergence action (Table B12); conditions: visual rating about 3 weeks after treatment, 100% = plants have died, 0% = like control plants
# Summary of the method: as §2
# [5] = test system: Alopecurus myosuroides (ALOMY); assay: Herbicidal post-emergence action (Table B9); conditions: rated visually after about 3 weeks, 100% = plants have died, 0% = like control plants
# Summary of the method: as §2
# [6] = test system: harmful plants ABUTH, AMARE, ECHCG, LOLRI, MATIN, POAAN, SETVI, STEME, ALOMY, DIGSA, KCHSC and VERPE; assay: Herbicidal pre-emergence action (test C), summary of Tables C1-C12; conditions: application rate of 1280 or 320 g of active ingredient per hectare; summary in words
# Summary of the method: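 Visual % damage versus untreated plants (0% = like control, 100% = died) was scored after about 3 weeks in the greenhouse. Before emergence, seeds sown in sandy loam got a soil-surface spray of compound as WP or EC plus 0.5% additive, using 600 L/ha water at rates of 1280 or 320 g/ha.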
# [7] = test system: Abutilon theophrasti (ABUTH); assay: Herbicidal pre-emergence action, test C (Table C5); conditions: visual scoring after about 3 weeks, 100% = plants have died, 0% = like control plants
# Summary of the method: (§3)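 Application rates of 1280 or 320 g/ha were delivered as WP or EC formulations in water with 0.5% additive, 600 L/ha, onto soil covering freshly sown seeds in sandy loam. Pots stayed under good greenhouse growth conditions, and efficacy was rated as visual percent after about 3 weeks.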
# [8] = test system: Matricaria inodora (MATIN); assay: Herbicidal pre-emergence action, test C (Table C7); conditions: dosage 1280 g/ha; visual scoring after about 3 weeks; 100% = plants have died, 0% = like control plants
# Summary of the method: as §3
# [9] = test system: Bassia scoparia (KCHSC); assay: Herbicidal post-emergence action (Table B11); conditions: visual rating about 3 weeks after treatment, 100% = plants have died, 0% = like control plants
# Summary of the method: as §2
# [10] = test system: Abutilon theophrasti (ABUTH); assay: Herbicidal post-emergence action (Table B5); conditions: rated visually after about 3 weeks, 100% = plants have died, 0% = like control plants
# Summary of the method: as §2
# [11] = test system: Veronica persica (VERPE); assay: Herbicidal pre-emergence action, test C (Table C12); conditions: visual scoring vs untreated controls
# Summary of the method: as §3
# [12] = test system: Bassia scoparia (KCHSC); assay: Herbicidal pre-emergence action, test C (Table C11); conditions: visual scoring vs untreated controls
# Summary of the method: as §3
# [13] = test system: Digitaria sanguinalis (DIGSA); assay: Herbicidal post-emergence action (Table B10); conditions: visual rating about 3 weeks after treatment, 100% = plants have died, 0% = like control plants
# Summary of the method: as §2
# [14] = test system: Stellaria media (STEME); assay: Herbicidal post-emergence action (Table B8); conditions: visual rating about 3 weeks after treatment, 100% = plants have died, 0% = like control plants
# Summary of the method: as §2
# [15] = test system: Poa annua (POAAN); assay: Herbicidal post-emergence action (Table B3); conditions: rated visually after about 3 weeks, 100% = plants have died, 0% = like control plants
# Summary of the method: as §2
# [16] = test system: Lolium rigidum (LOLRI); assay: Herbicidal pre-emergence action, test C (Table C2); conditions: dosage 1280 g/ha; visual scoring after about 3 weeks; 100% = plants have died, 0% = like control plants
# Summary of the method: as §3
# [17] = test system: Setaria viridis (SETVI); assay: Herbicidal pre-emergence action, test C (Table C4); conditions: visual scoring after about 3 weeks, 100% = plants have died, 0% = like control plants
# Summary of the method: as §3
# [18] = test system: Lolium rigidum (LOLRI); assay: Herbicidal post-emergence action (Table B2); conditions: 1280 g/ha; rated visually after about 3 weeks; 100% = plants have died, 0% = like control plants
# Experimental: as §1
# [19] = test system: Stellaria media (STEME); assay: Herbicidal pre-emergence action, test C (Table C8); conditions: visual scoring after about 3 weeks, 100% = plants have died, 0% = like control plants
# Summary of the method: as §3
# [20] = test system: Poa annua (POAAN); assay: Herbicidal pre-emergence action, test C (Table C3); conditions: visual scoring after about 3 weeks, 100% = plants have died, 0% = like control plants
# Summary of the method: as §3
# [21] = test system: Alopecurus myosuroides (ALOMY); assay: Herbicidal pre-emergence action, test C (Table C9); conditions: dosage 1280 g/ha; visual scoring after about 3 weeks; 100% = plants have died, 0% = like control plants
# Summary of the method: as §3
# [22] = test system: Digitaria sanguinalis (DIGSA); assay: Herbicidal pre-emergence action, test C (Table C10); conditions: visual scoring after about 3 weeks, 100% = plants have died, 0% = like control plants
# Summary of the method: as §3
# [23] = test system: Amaranthus retroflexus (AMARE); assay: Herbicidal post-emergence action (Table B6); conditions: visual rating about 3 weeks after treatment, 100% = plants have died, 0% = like control plants
# Summary of the method: as §2
# [24] = test system: Setaria viridis (SETVI); assay: Herbicidal post-emergence action (Table B4); conditions: 1280 g/ha; rated visually after about 3 weeks; 100% = plants have died, 0% = like control plants
# Experimental: as §1
# [25] = test system: Echinochloa crus-galli (ECHCG); assay: Herbicidal pre-emergence action, test C (Table C1); conditions: dosage 1280 g/ha; visual scoring after about 3 weeks; 100% = plants have died, 0% = like control plants
# Summary of the method: as §3
# [26] = test system: Amaranthus retroflexus (AMARE); assay: Herbicidal pre-emergence action, test C (Table C6); conditions: visual scoring after about 3 weeks, 100% = plants have died, 0% = like control plants
# Summary of the method: as §3
smiles,measurement,setting,value
Clc1ccc(Oc2ccccc2-c2ccc(Cl)cn2)nc1 [Example 1-75],Post-emergence action against Matricaria inodora (MATIN),[1],100%
same,Post-emergence action against Echinochloa crus-galli (ECHCG),[2]; 1280 g/ha,100%
same,herbicidal activity against the harmful plants of Tables B1-B12 in post-emergence treatment,[3],very good herbicidal activity
same,Post-emergence action against Veronica persica (VERPE),[4]; dosage 1280 g/ha,100%
same,Post-emergence action against Alopecurus myosuroides (ALOMY),[5]; 1280 g/ha,90%
Fc1ccc(Oc2ncc(Cl)cc2F)c(-c2cc(C(F)F)on2)c1 [Example 1-31],Post-emergence action against Echinochloa crus-galli (ECHCG),[2]; 320 g/ha,90%
same,Post-emergence action against Echinochloa crus-galli (ECHCG),[2]; 1280 g/ha,100%
same,herbicidal activity against the harmful plants of Tables C1-C12 in pre-emergence treatment,[6],very good herbicidal activity
same,Pre-emergence action against Abutilon theophrasti (ABUTH),[7]; dosage 320 g/ha,90%
same,Pre-emergence action against Abutilon theophrasti (ABUTH),[7]; dosage 1280 g/ha,100%
same,Pre-emergence action against Matricaria inodora (MATIN),[8],90%
same,Post-emergence action against Bassia scoparia (KCHSC),[9]; dosage 320 g/ha,90%
same,Post-emergence action against Bassia scoparia (KCHSC),[9]; dosage 1280 g/ha,100%
same,Post-emergence action against Abutilon theophrasti (ABUTH),[10]; 320 g/ha,90%
same,Post-emergence action against Abutilon theophrasti (ABUTH),[10]; 1280 g/ha,100%
same,herbicidal activity against the harmful plants of Tables B1-B12 in post-emergence treatment,[3],very good herbicidal activity
same,Pre-emergence action against Veronica persica (VERPE),[11]; dosage 320 g/ha,100%
same,Pre-emergence action against Veronica persica (VERPE),[11]; dosage 1280 g/ha,100%
same,Pre-emergence action against Bassia scoparia (KCHSC),[12]; dosage 320 g/ha,90%
same,Pre-emergence action against Bassia scoparia (KCHSC),[12]; dosage 1280 g/ha,100%
same,Post-emergence action against Digitaria sanguinalis (DIGSA),[13]; dosage 320 g/ha,90%
same,Post-emergence action against Digitaria sanguinalis (DIGSA),[13]; dosage 1280 g/ha,100%
same,Post-emergence action against Stellaria media (STEME),[14]; dosage 320 g/ha,100%
same,Post-emergence action against Stellaria media (STEME),[14]; dosage 1280 g/ha,100%
same,Post-emergence action against Poa annua (POAAN),[15]; 320 g/ha,100%
same,Post-emergence action against Poa annua (POAAN),[15]; 1280 g/ha,100%
same,Pre-emergence action against Lolium rigidum (LOLRI),[16],100%
same,Pre-emergence action against Setaria viridis (SETVI),[17]; dosage 320 g/ha,100%
same,Pre-emergence action against Setaria viridis (SETVI),[17]; dosage 1280 g/ha,100%
same,Post-emergence action against Lolium rigidum (LOLRI),[18],90%
same,Pre-emergence action against Stellaria media (STEME),[19]; dosage 320 g/ha,100%
same,Pre-emergence action against Stellaria media (STEME),[19]; dosage 1280 g/ha,100%
same,Pre-emergence action against Poa annua (POAAN),[20]; dosage 320 g/ha,90%
same,Pre-emergence action against Poa annua (POAAN),[20]; dosage 1280 g/ha,100%
same,Post-emergence action against Veronica persica (VERPE),[4]; dosage 320 g/ha,100%
same,Post-emergence action against Veronica persica (VERPE),[4]; dosage 1280 g/ha,100%
same,Pre-emergence action against Alopecurus myosuroides (ALOMY),[21],100%
same,Post-emergence action against Alopecurus myosuroides (ALOMY),[5]; 320 g/ha,100%
same,Post-emergence action against Alopecurus myosuroides (ALOMY),[5]; 1280 g/ha,100%
same,Pre-emergence action against Digitaria sanguinalis (DIGSA),[22]; dosage 320 g/ha,90%
same,Pre-emergence action against Digitaria sanguinalis (DIGSA),[22]; dosage 1280 g/ha,100%
same,Post-emergence action against Amaranthus retroflexus (AMARE),[23]; dosage 320 g/ha,100%
same,Post-emergence action against Amaranthus retroflexus (AMARE),[23]; dosage 1280 g/ha,100%
same,Post-emergence action against Setaria viridis (SETVI),[24],100%
same,Pre-emergence action against Echinochloa crus-galli (ECHCG),[25],100%
same,Pre-emergence action against Amaranthus retroflexus (AMARE),[26]; dosage 320 g/ha,100%
same,Pre-emergence action against Amaranthus retroflexus (AMARE),[26]; dosage 1280 g/ha,100%
